Five compounds from DBAASP can be followed below.

Values after ≈ are worked out from the molar mass of the structure shown.

Some test systems named below: Pseudomonas aeruginosa; Staphylococcus aureus; Acinetobacter baumannii; Enterobacter cloacae.
What all share (assay): ≥ marks a high value that may be exact or a test limit, other limits are often not marked, values filed in µg/mL are converted to µM
In assay [1] the test system is Escherichia coli ATCC 25922.
In assay [2] the test system is Pseudomonas aeruginosa CUN 4158-02.
In assay [3] the test system is Bordetella bronchiseptica CUN 11844-99.
Assay [4] deals with Staphylococcus aureus ATCC 25923.
The test system of assay [5] is Bacillus cereus ATCC 11778.
Assay [6] relates to Escherichia coli CCT 1457.
In assay [7] the test system is Enterococcus faecium CCT 5079.
Assay [8] deals with Escherichia coli ATCC 11775.
For assay [9], the system named is Streptococcus pneumoniae ATCC 11733.
Assay [10] relates to Bacillus thuringiensis ATCC 10792.
Assay [11] deals with Pseudomonas aeruginosa ATCC 13388.
Assay [12] relates to Salmonella enterica subsp. enterica serovar Typhimurium ATCC 14028.
Assay [13] concerns Salmonella enterica subsp. enterica serovar Choleraesuis ATCC 10708.
Assay [14] relates to Micrococcus luteus ATCC 4698.
The subject of assay [15] is Staphylococcus epidermidis ATCC 12228.
Assay [16] deals with Enterococcus hirae ATCC 10541.
The test system of assay [17] is Pseudomonas aeruginosa ATCC 15422.
Assay [18] has as its system Staphylococcus aureus CCT 6538.
For assay [19], the system named is Staphylococcus aureus CCT 2580.
Assay [20] concerns Streptococcus mutans AU159.
In assay [21] the test system is Salmonella typhimurium CIP 103446.
The subject of assay [22] is Staphylococcus aureus CIP 53.156.
The subject of assay [23] is Bacillus megaterium CIP 51.17.
For assay [24], the system named is Vibrio alginolyticus CIP 109819.
Assay [25] deals with Listeria monocytogenes CIP 110871.
Assay [26] concerns Escherichia coli CIP 54.8T.
In assay [27] the test system is Aeromonas salmonicida CIP 103209T.
Assay [28] has as its system Enterococcus faecalis CIP 76.117.
Assay [29] relates to Staphylococcus pseudintermedius.
The subject of assay [30] is Pseudomonas aeruginosa ATCC 27853.
Assay [31] relates to Staphylococcus aureus ATCC 29213.
Assay [32] deals with Klebsiella pneumoniae ATCC 13883.
Assay [33] concerns Escherichia coli ATCC 8739.
For assay [34], the system named is Pseudomonas aeruginosa PAO1.
Assay [35] concerns Escherichia coli KpC+001812446.
Assay [36] has as its system Klebsiella pneumoniae KpC+001825971.
Assay [37] concerns Staphylococcus aureus ATCC 12600.
Assay [38] relates to Pseudomonas aeruginosa PA14.

On to `CC[C@H](C)[C@H](NC(=O)CN)C(=O)NCC(=O)N[C@@H](CCCCN)C(=O)N[C@@H](Cc1ccccc1)C(=O)N[C@@H](CO)C(=O)N[C@@H](CCCCN)C(=O)N[C@@H](CCCCN)C(=O)NCC(=O)N[C@@H](C)C(=O)N[C@@H](C)C(=O)N[C@@H](C)C(=O)N[C@@H](CCCN=C(N)N)C(=O)N[C@@H](CCCN=C(N)N)C(=O)N[C@@H](CCCN=C(N)N)C(=O)N[C@@H](CCCCN)C(=O)N[C@H](C(=O)N[C@@H](CO)C(=O)N[C@@H](CC(C)C)C(=O)N[C@@H](CCCCN)C(=O)N[C@@H](C)C(=O)N[C@@H](CC(C)C)C(N)=O)C(C)C` [GIGKFSKKGAAARRRKVSLKAL], for which the MIC in assay [1] was greater than 219 µM; in assay [2], no less than 219 µM; in assay [3] it was no less than 219 µM; in assay [4], greater than 219 µM.

With `CC[C@H](C)[C@H](N)C(=O)N[C@@H](CC(N)=O)C(=O)N[C@@H](Cc1c[nH]c2ccccc12)C(=O)N[C@@H](CC(C)C)C(=O)N[C@@H](C)C(=O)N[C@H](C(=O)N[C@@H](C)C(=O)N[C@@H](CCCCN)C(=O)N[C@@H](CCCCN)C(=O)N[C@H](C(=O)N[C@@H](C)C(=O)NCC(=O)N[C@@H](CCSC)C(=O)N[C@@H](CC(C)C)C(N)=O)C(C)C)[C@@H](C)CC` [INWLAIAKKVAGML], the minimum inhibitory concentration (MIC) in assay [5] was determined as 10.5 µM (≈ 16 µg/mL); in assay [6], 2.62 µM (≈ 4 µg/mL); in assay [7] it was 5.24 µM (≈ 8 µg/mL); in [8], 5.24 µM (≈ 8 µg/mL); in assay [9] it was 1.31 µM (≈ 2 µg/mL); in assay [10], 5.24 µM (≈ 8 µg/mL). Also, the MIC is no less than 41.2 µM in [11]; 20.3 µM (≈ 31 µg/mL) in assay [12]; 10.5 µM (≈ 16 µg/mL) in [13]; 2.62 µM (≈ 4 µg/mL) in assay [14]; 2.62 µM (≈ 4 µg/mL) in [1]; 2.62 µM (≈ 4 µg/mL) in [15]. For the same compound, the MIC in [16] amounted to 5.24 µM (≈ 8 µg/mL); in assay [17], 10.5 µM (≈ 16 µg/mL); in assay [4], 15.1 µM (≈ 23 µg/mL); in [18] it was 2.62 µM (≈ 4 µg/mL); in assay [19], 2.62 µM (≈ 4 µg/mL); in [20], 2.62 µM (≈ 4 µg/mL).

For the compound `CC[C@H](C)[C@H](NC(=O)[C@@H](N)CCCCN)C(=O)N[C@@H](CCCN=C(N)N)C(=O)N[C@@H](Cc1ccccc1)C(=O)N[C@H](C(=O)N[C@@H](CCCN=C(N)N)C(=O)N[C@H](C(=O)N[C@H](C(=O)N[C@@H](CO)C(=O)N[C@@H](CCCN=C(N)N)C(=O)N[C@@H](CC(C)C)C(=O)N[C@@H](CC(C)C)C(=O)N[C@@H](CCCCN)C(=O)N[C@@H](C)C(=O)N[C@@H](C)C(=O)N[C@@H](CC(C)C)C(=O)N[C@@H](C)C(=O)N[C@@H](CO)C(=O)N[C@H](C(=O)O)[C@@H](C)O)C(C)C)[C@@H](C)O)[C@@H](C)O` [KIRFTRTVSRLLKAALAST], the MIC in assay [21] was no less than 86.6 µM; in assay [22], 15.8 µM (≈ 33.7 µg/mL); in assay [23], 3.16 µM (≈ 6.74 µg/mL); in [24], no less than 35.4 µM; in assay [25], no less than 50 µM; in [26] it was 3.16 µM (≈ 6.74 µg/mL). The figures for the MIC in [27] and in assay [28] were 15.8 µM (≈ 33.7 µg/mL) and no less than 122 µM, respectively.

Regarding `CC[C@H](C)[C@H](NC(=O)[C@H](CC(C)C)NC(=O)[C@@H]1CCCN1C(=O)[C@H](CCCCN)NC(=O)[C@H](CC(C)C)NC(=O)[C@H](CCCN=C(N)N)NC(=O)[C@H](CCCN=C(N)N)NC(=O)[C@H](CC(C)C)NC(C)=O)C(=O)N[C@@H](CCCN=C(N)N)C(=O)N1CCC[C@H]1C(=O)N[C@@H](Cc1c[nH]c2ccccc12)C(=O)N[C@@H](CC(C)C)C(=O)N[C@@H](CCCN=C(N)N)C(=O)N1CCC[C@H]1C(=O)N[C@@H](CC(C)C)C(=O)N[C@@H](CCCN=C(N)N)C(=O)N[C@@H](CCCN=C(N)N)C(=O)N[C@@H](Cc1c[nH]c2ccccc12)C(=O)N[C@@H](Cc1c[nH]c2ccccc12)C(=O)N[C@@H](Cc1c[nH]c2ccccc12)C(N)=O` [LRRLKPLIRPWLRPLRRWWW], the MIC in assay [29] was found to be 16.2 µM (≈ 45.9 µg/mL); in assay [30], 5.72 µM (≈ 16.2 µg/mL); with Pseudomonas aeruginosa it was 4.04 µM (≈ 11.5 µg/mL); in [31], 11.4 µM (≈ 32.5 µg/mL).

Consider `CC[C@H](C)[C@H](NC(=O)[C@H](CCCCN)NC(=O)[C@H](CCCCN)NC(=O)CNC(=O)[C@H](CC(C)C)NC(=O)[C@H](CCCN=C(N)N)NC(=O)[C@H](CCCCN)NC(=O)[C@H](CC(C)C)NC(=O)[C@H](CC(C)C)NC(=O)[C@H](CCCCN)NC(=O)[C@H](CCSC)NC(=O)[C@@H]1CCCN1)C(=O)N[C@@H](CCCN=C(N)N)C(=O)N[C@@H](CC(C)C)C(=O)N[C@@H](C)C(=O)N[C@@H](C)C(=O)N[C@@H](C)C(=O)N[C@@H](Cc1ccccc1)C(=O)N[C@@H](CCCCN)C(=O)O` [PMKLLKRLGKKIRLAAAFK], for which the MIC stood at 16 µM (≈ 34.9 µg/mL) against Staphylococcus aureus; 8 µM (≈ 17.5 µg/mL) in [32]; 4 µM (≈ 8.73 µg/mL) in assay [1]; 4 µM (≈ 8.73 µg/mL) in the assay on Acinetobacter baumannii; 14.7 µM (≈ 32 µg/mL) in assay [33]; 4 µM (≈ 8.73 µg/mL) in assay [34]. Further, the MIC in assay [35] is 2 µM (≈ 4.37 µg/mL); in [4], 16 µM (≈ 34.9 µg/mL); against Enterobacter cloacae, no less than 32 µM; in assay [36], no less than 32 µM; in assay [37] it was 4 µM (≈ 8.73 µg/mL); in assay [38], 4 µM (≈ 8.73 µg/mL).

One may read the MIC as the lowest concentration found to suppress growth. Low values mean inhibition by little substance, high ones a need for much substance.
